Read-outs that look alike come from different tables or passages of the source.
Key:
[1] = system: fibroblast to myofibroblast transdifferentiation (primary human lung fibroblasts and primary rodent HSCs); assay: High content imaging and western based assay of fibroblast to myofibroblast transdifferentiation (α-SMA); type: cell-based; conditions: graded, TGF-β induced fibroblast to myofibroblast transdifferentiation
Description: A high content imaging assay, based on α-SMA staining and cell morphological changes associated with fibroblast to myofibroblast transdifferentiation, was established using primary human lung fibroblasts and primary rodent HSCs. Conditions, involving serum starvation and subsequent TGF-β treatment, were identified that facilitate robust in vitro transdifferentiation in a miniaturized (384 well plate) format that is amenable to high throughput small molecule screening. A selective ALK-5 TGF-β1 receptor inhibitor (SB-431542) was used as a positive control. […] This assay was used to identify a hit compound (itraconazole) and was used to evaluate focused panels of itraconazole analogues generated from medicinal chemistry efforts.
The activity of Itraconazole and its analogues was confirmed by analyzing changes in gene expression of multiple genes associated with fibroblast to myofibroblast transdifferentiation using biochemical methods (i.e., Western blot and RT-PCR). These 4-day assays were used to evaluate sets of 6 compounds at a time in 4-point dose response fashion.
After 24 hour incubation, cells were treated with the indicated doses of itraconazole for 48 hours in the presence of 10 ng/mL of TGF-β1 in hepatic stellate medium. Following fixation and staining with an anti smooth muscle actin antibody, cell morphology was analyzed with a Cellomics cell insight imaging reader (FIG. 1 for representative images). Cells were analyzed for mean cellular area of a-SMA staining (FIG. 5a) or mean fluorescence intensity of SMA staining (FIG. 5b).
After 24 incubation, medium was changed to assay medium containing TGF-β1 (10 ng/mL) and simultaneously treated with itraconazole (10 μM), SB431542 (10 μM) or vehicle control (FIG. 6).

[2] = Mouse pharmacokinetic (PK) studies, snapshot format; type: in vivo; conditions: plasma, po, 20 mg/kg; for AUC(0-t): read-out: AUC0-24 h
Method: Compounds with suitable in vitro ADME properties were progressed to in vivo PK studies. A snapshot format in mice was used to quickly assess the potential for lead candidates to be orally bioavailable. The snapshot format involved a single dose (typically 20 mg/kg) given orally in a standard vehicle (5% PEG/DMSO in water for example). Compounds were infused directly into MS analysis to determine unique MRM (multiple reaction monitoring) signal that is concentration dependent in either ESI positive or negative modes. HPLC analysis using various solvent gradients was performed from organic and aqueous solution to ensure good peak shape of desired Q1/Q2 masses. Formulations included 45% Cyclodextrin in water (as is used clinically for Itraconazole). Other formulations that may used are solutol, Eudragit, MC/Tween, etc. Standard curves were generated using plasma spiked with compound at various concentrations (10 ng/mL to 2000 ng/mL) to determine linear range of Q1/Q2 mass signal to compound concentration using female mouse heparinized plasma. Mice were dosed orally with compound, plasma samples collected by retro-orbital bleeds. Five time points were collected (30 min, 1 h, 4 h, 8 h, 24 h) into heparinized collection tubes. Protein precipitation was performed and compound extracted in cold acetonitrile and analyzed by MS. Nonwinlin was used for PK modeling as needed.

[3] = target: Cyp3A4 (Homo sapiens, UniProt P08684); assay: Cyp time-dependent inhibition (TDI) assay (human liver microsomes); type: in vitro ADME; parameters: The TDI assay was generally performed in liver microsomes; from tissue; host or cells: human liver microsomes; conditions: for IC50: human liver microsomes; for TDI ratio: (−) NADPH/(+) NADPH: IC50 shift, >1.5-fold considered positive for TDI
Method: The data from this assay was used in conjunction to the reversible inhibition assay. […] Then both incubation sets were diluted with fresh assay buffer containing NADPH Cyp specific substrates (midazolam for Cyp3A4) and inhibition of midazolam hydroxylation was measured by LC-MS/MS (Q1/Q2=m/z 342.2/203.2).

[4] = system: bleomycin-induced lung fibrosis; assay: Bleomycin-induced lung fibrosis model; type: in vivo, mouse; conditions: 10 mg/kg SID versus AM-152 (30 mg/kg BID) and pirfenidone (400 mg/kg BID)
Description: These in vivo assays took 6-8 weeks to complete (including full histological analysis). Typical experiments consisted of groups of 6-8 animals treated with itraconazole (2-4 doses), 1 or 2 itraconazole analogues (2-4 doses), vehicle, and benchmark treatments (pirfenidone and AM-152). AM-152 (Amira Pharmaceuticals) is an LPA1 (Lysophosphatidic acid 1) receptor antagonist. This target has been described as relevant to exacerbation of IPF systems in a mouse bleomycin model (British Journal of Pharmacology (2010), 160, 1699-1713). AM-152 is an advanced compound on this target as has been previously described in more detail in WO 2012/078805 and was used as a positive control and comparator to the compound disclosed in this application.
Nine-week old B6 male mice (Taconic farms) were surgically implanted with osmotic pumps delivering 25 mg/kg bleomycin for seven days. 17 days after surgery mice were treated with drug for 2 weeks. Drug treatments were administered as described in study design (FIG. 14). Previously described anti-fibrotic drugs AM-152 and pirfenidone were used as positive control drugs. […] Stained lung sections were analyzed according to a modified Ashcroft scoring system (FIG. 16) and using an unbiased automated image analysis method. […] Total stained area was then determined by using the area measurement function within ImageJ.

[5] = 20 mg/kg in 0.5% MC/0.5% TW80 suspension vehicle
[6] = 20 mg/kg in 45% cyclodextrin with water
[7] = 20 min pre-incubation with NADPH, read-out: 3A4-Midazolam IC50 (+) NADPH
[8] = 20 min pre-incubation without NADPH, read-out: 3A4-Midazolam IC50 (−) NADPH

Sequence of Cyp3A4 (P08684 whole entry): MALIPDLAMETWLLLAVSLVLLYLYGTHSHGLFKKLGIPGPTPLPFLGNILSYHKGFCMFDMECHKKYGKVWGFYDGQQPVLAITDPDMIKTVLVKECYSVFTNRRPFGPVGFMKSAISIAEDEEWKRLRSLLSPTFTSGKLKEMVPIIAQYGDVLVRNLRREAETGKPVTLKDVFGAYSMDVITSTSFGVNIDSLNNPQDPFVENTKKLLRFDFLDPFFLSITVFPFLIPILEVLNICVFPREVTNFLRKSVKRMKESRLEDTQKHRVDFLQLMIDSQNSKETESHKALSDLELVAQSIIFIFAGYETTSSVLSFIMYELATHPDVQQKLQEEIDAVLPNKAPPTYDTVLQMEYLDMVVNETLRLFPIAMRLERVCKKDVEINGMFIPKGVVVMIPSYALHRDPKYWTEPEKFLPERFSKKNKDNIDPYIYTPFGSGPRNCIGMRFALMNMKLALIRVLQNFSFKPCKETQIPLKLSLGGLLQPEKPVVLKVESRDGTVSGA

Question: Which EC50 [1] does the source give for `CCC(C)n1ncn(-c2ccc(N3CCN(c4ccc(OC[C@@H]5CO[C@@](Cc6ccnnc6)(c6ccc(Cl)cc6Cl)O5)cc4)CC3)cc2)c1=O` (stereo partly shown) [Compound 22] here?
Answer: The EC50 was less than 0.5 µM.

Question: What about the Cmax [2, 5] of the same compound?
Answer: Its Cmax is 170 nM.

Question: And the AUC(0-t) [2, 5]?
Answer: The AUC(0-t) was 2.21 µM·h.

Question: And the Cmax [2, 6]?
Answer: The Cmax was 1710 nM.

Question: What about the AUC(0-t) [2, 6] of the same compound?
Answer: Its AUC(0-t) is 8.08 µM·h.

Question: What about the IC50 [3, 7] of the same compound?
Answer: Its IC50 is greater than 50 µM.

Question: And the IC50 [3, 8]?
Answer: Its IC50 is greater than 50 µM.

Question: What about the “TDI ratio: (−) NADPH/(+) NADPH” value [3] of the same compound?
Answer: Its value is ~1 (no TDI).

Question: Which results are given for `CCC(C)n1ncn(-c2ccc(N3CCN(c4ccc(OC[C@@H]5CO[C@@](Cn6nccn6)(c6ccccc6)O5)cc4)CC3)cc2)c1=O` (stereo partly shown) [Compound 42]?
Answer: EC50 [1]: < 0.5 µM; Cmax [2, 6]: 3160 nM; AUC(0-t) [2, 6]: 42.7 µM·h; Lung fibrosis disease severity compared to control compounds [4]: decreased lung fibrosis disease severity with efficacy that was as good or better; IC50 [3, 7]: > 50 µM; IC50 [3, 8]: > 50 µM; TDI ratio: (−) NADPH/(+) NADPH [3]: ~1 (no TDI)

Question: Which EC50 [1] does the source give for `CCC(C)n1ncn(-c2ccc(N3CCN(c4ccc(OC[C@@H]5CO[C@@](Cn6nccn6)(c6ccc(Cl)cc6Cl)O5)cc4)CC3)cc2)c1=O` (stereo partly shown) [Compound 15] here?
Answer: The EC50 was 0.5 to 5 µM.

Question: And the IC50 [3, 7]?
Answer: Its IC50 is 41 µM.

Question: What about the IC50 [3, 8] of the same compound?
Answer: The IC50 was greater than 50 µM.

Question: And the “TDI ratio: (−) NADPH/(+) NADPH” value [3]?
Answer: The value was ~1.2 (no TDI).
